Results reported in paper PMC8778818, “Synthesis, Structural Characterization and Anticancer Activity of New 5-Trifluoromethyl-2-thioxo-thiazolo[4,5-d]pyrimidine Derivatives” (Pharmaceuticals, 2022).

What was measured:
NCI-H322M = assay: NCI-60 screen, Non-Small Cell Lung Cancer NCI-H322M; format: cell-based, human; conditions: for Growth of Cells (%): 10^−5 M one dose
A498 = assay: NCI-60 screen, Renal Cancer A498; format: cell-based, human; conditions: for Growth of Cells (%): A498, 10^−5 M one dose
BT-549 = assay: NCI-60 screen, Breast Cancer BT-549; format: cell-based, human; conditions: for Growth of Cells (%): BT-549, 10^−5 M one dose
[1] = MTT cell viability assay, HaCaT; format: cell-based, human; conditions: HaCaT keratinocytes (normal cell line), HaCaT human keratinocytes, 50 µM
Experimental: Twelve compounds (2a-e, 3a-d and 4a-c) at a concentration range of 50–5000 μM were tested for their antiproliferative potential against four human cancer cell lines (A375—melanotic melanoma, C32—amelanotic melanoma, DU145—prostate cancer androgen-independent, MCF-7/WT—breast adenocarcinoma) and two normal cell lines: Chinese Hamster Ovary (CHO-K1) and immortalized human keratinocytes from histologically normal skin (HaCaT).
To determine the antiproliferative activity of newly synthesized compounds, the following cell lines were used: human melanotic melanoma cell line (A375), human amelanotic melanoma cell line (C32), human breast adenocarcinoma cell line (MCF-7/WT), human prostate cancer androgen-independent (DU145) and two normal cell lines: hamster ovarian (CHO-K1) and immortalized human keratinocytes from histologically normal skin (HaCaT). The cells were obtained from the cell line bank of the Department of Molecular and Cellular Biology, Wroclaw Medical University. A375, C32, MCF-7/WT, DU145 and HaCaT cells were grown in a monolayer cultured in Dulbecco’s Modified Eagle’s Medium (DMEM, Sigma-Aldrich, Poznań, Poland), supplemented with 10% of fetal bovine serum (FBS, Gibco, Paisley, UK) and 1% of antibiotics (penicillin/streptomycin, Sigma-Aldrich) and CHO-K1 were grown in HAM’s F-12 medium (Sigma-Aldrich), supplemented with 10% fetal bovine serum (FBS, Gibco) and 1% of antibiotics (penicillin/streptomycin, Sigma-Aldrich). Cell lines were cultured in the polystyrene flasks 25 or 75 cm^2 (Thermo Fisher Scientific, Waltham, MA, USA), which were stored in 37 °C and 5% CO2 in a humidified 95% atmosphere (SteriCult, Thermo Scientific, Alab). The cell medium was exchanged twice a week. The exponentially growing cells were used throughout the experiments. The cells were rinsed with phosphate-buffered saline (PBS, Sigma-Aldrich) and trypsinized by Trypsin-EDTA 0.25% solution (Sigma-Aldrich).
The influence of the compounds was performed in a monolayer culture on cancer and normal cells. Compounds were initially dissolved in DMSO; further dilutions of the compound were performed in Dulbecco’s Modified Eagle’s Medium supplemented with 10% FBS. Compounds were tested in a 50–5000 µM concentration range. In the in vitro experiments, the concentrations of DMSO in the final solution of the compounds were used 0.05%; 0.1%; 0.5%; 1%, respectively.
Cell viability was determined using the MTT colorimetric assay. All cell lines were seeded into 96-well plates to a density of 3 × 10^4 cells/well. After 24 h, the culture supernatants were removed and appropriate dilutions of compounds in the culture medium (200 µL/well) were added to the cells’ monolayer cultures and incubated for an additional 72 h. After 72 h of exposition to the compounds and the removal of the culture medium, cell viability was determined by reducing the yellow dye 3-(4,5-dimethyl-2-thiazol)-2,5-diphenyl-2H-tetrazolium bromide (MTT assay, Sigma Saint Louis, MO, USA; In Vitro Toxicology Assay) to a blue formazan product. The absorbance of the resulting solutions in three duplicate experiments was measured at the wavelength of 560 nm in a microplate reader (EnSpire, Perkin Elmer, Kraków, Poland). MTT assay is a colorimetric method that estimates the rate of metabolism in viable cells. Absorbance is directly proportional to the number of viable cells. All the experiments were performed three times and the mean absorbance values were calculated. The methodology for the evaluation of the growth of human cancer and normal cells was described previously. The cell viability in each group was expressed as a percentage of control (untreated) cells.

M14 = assay: cells; conditions: Homo sapiens

Row | SMILES | Growth of Cells (%) (NCI-H322M) | Growth of Cells (%) (A498) | Growth of Cells (%) (BT-549) | viability at 72 h, 50 µM [1] | GI50 (NCI-H322M; Homo sapiens, five doses 10^−4–10^−8 M) | CC50 (NCI-H322M; Homo sapiens, five doses 10^−4–10^−8 M, read-out: log LC50 (the source's name) (converted)) | log TGI (NCI-H322M; five doses 10^−4–10^−8 M) | log TGI (A498; A498, five doses 10^−4–10^−8 M) | GI50 (A498; Homo sapiens, A498, five doses 10^−4–10^−8 M) | CC50 (A498; Homo sapiens, A498, five doses 10^−4–10^−8 M, read-out: log LC50 (the source's name) (converted)) | log TGI (BT-549; BT-549, five doses 10^−4–10^−8 M) | GI50 (BT-549; Homo sapiens, BT-549, five doses 10^−4–10^−8 M) | CC50 (BT-549; Homo sapiens, BT-549, five doses 10^−4–10^−8 M, read-out: log LC50 (the source's name) (converted)) | GI50 (M14; M14, read-out: log GI50 (converted)) | CC50 (M14; M14, read-out: log LC50 (converted))
1 | O=c1[nH]c(C(F)(F)F)nc2c1sc(=S)n2-c1ccccc1 [Compound 2b, 3-phenyl-2-thioxo-5-(trifluoromethyl)-2,3-dihydro[1, 3]thiazolo[4,5-d]pyrimidin-7(6H)-one] | 128.80% | 90.58% | 130.31% |  |  |  |  |  |  |  |  |  |  |  | 
2 | FC(F)(F)c1nc(Cl)c2sc(=S)n(-c3ccccc3)c2n1 [Compound 3b, 7-chloro-3-phenyl-5-(trifluoromethyl)[1, 3]thiazolo[4,5-d]pyrimidine-2(3H)-thione] | 101.54% | 91.46% | 73.90% | 20% | 3.8 µM | 38 µM | −4.90 log M | −4.57 log M | 13.5 µM | 52.5 µM | −5.50 log M | 1.51 µM | 6.76 µM | 2 µM | 8.32 µM
3 | CCNc1nc(C(F)(F)F)nc2c1sc(=S)n2-c1ccccc1 [Compound 4b, 7-(ethylamino)-3-phenyl-5-(trifluoromethyl)[1, 3]thiazolo[4,5-d]pyrimidine-2(3H)-thione] |  |  | 95.21% |  |  |  |  |  |  |  |  |  |  |  | 
4 | Fc1ccc(CNc2nc(C(F)(F)F)nc3c2sc(=S)n3-c2ccccc2)cc1 [Compound 4c] |  | 121.43% | 98.87% |  |  |  |  |  |  |  |  |  |  |  | 
